Test results taken from ChEMBL document CHEMBL1201862, “PubChem BioAssay data set” (2004).
Calls of active or inactive are those of the source.

Tests used:
Mu-type opioid receptor [1] = biological target: T1, Mu-type opioid receptor (Homo sapiens, UniProt P35372); experiment: SAR Analysis of Antagonists of the MOR Receptor using an Image-Based Assay - Set 2. [Related pubchem assays (depositor defined):AID1777, AID1785, AID1786, AID1966, AID2133, AID2136, AID2284, AID2285, AID2420]; format: functional
[2] = biological target: T2, Kappa-type opioid receptor (Homo sapiens, UniProt P41145); experiment: SAR analysis of Antagonists of the Kappa Opioid Receptor (KOR) using an Image-Based Assay - Set 2. [Related pubchem assays (depositor defined):AID1777, AID1785, AID1786, AID1966, AID2133, AID2136, AID2284, AID2285, AID2348]; format: functional
Mu-type opioid receptor [3] = biological target: T1, Mu-type opioid receptor; experiment: SAR Analysis of Agonists of the MOR Receptor using an Image-Based Assay - Set 2. [Related pubchem assays (depositor defined):AID1777, AID1785, AID1786, AID1966, AID2133, AID2136, AID2284, AID2285, AID2352]; format: functional
[4] = biological target: T2, Kappa-type opioid receptor; experiment: SAR analysis of small molecule agonists of the kappa opioid receptor via a luminescent beta-arrestin assay - Set 2. [Related pubchem assays (depositor defined):AID1777, AID1785, AID1786, AID1966, AID2133, AID2136, AID2284, AID449737]; format: functional
[5] = biological target: T3, Delta-type opioid receptor (Homo sapiens, UniProt P41143); experiment: SAR Analysis of Agonists of the DOR Receptor using an Image-Based Assay - Set 2. [Related pubchem assays (depositor defined):AID1777, AID1785, AID1786, AID1966, AID2133, AID2136, AID2284, AID2285, AID2370]; format: functional
[6] = biological target: T3, Delta-type opioid receptor; experiment: SAR Analysis of Antagonists of the DOR Receptor using an Image-Based Assay - Set 2. [Related pubchem assays (depositor defined):AID1777, AID1785, AID1786, AID1966, AID2133, AID2136, AID2284, AID2285, AID2357]; format: functional
[7] = biological target: T2, Kappa-type opioid receptor; experiment: kappa opioid receptor blockade potency – cell-based, luminescence, set 2, SAR follow-up (AID 2495); format: functional
[8] = biological target: T2, Kappa-type opioid receptor; experiment: SAR analysis of Agonists of the Kappa Opioid Receptor (KOR) using an Image-Based Assay - Set 2. [Related pubchem assays (depositor defined):AID1777, AID1786, AID1966, AID2133, AID2136, AID2284, AID2285, AID2359]; format: functional
[9] = Luminescent dose response cell-based high throughput screening assay for inhibitors of the Janus kinase 2 mutant JAK2V617F. [Related pubchem assays: 1446 (Primary screen.), 1521 (Confirmation assay.), 1486 (Counter screen.)]; format: functional
[10] = biological target: T4, High affinity choline transporter 1 (Homo sapiens, UniProt Q9GZV3); experiment: human choline transporter blockers, potency – cell-based, 5-point CRC, membrane potential dye, dose response (AID 504840); format: functional
T4 sequence (Q9GZV3 whole entry): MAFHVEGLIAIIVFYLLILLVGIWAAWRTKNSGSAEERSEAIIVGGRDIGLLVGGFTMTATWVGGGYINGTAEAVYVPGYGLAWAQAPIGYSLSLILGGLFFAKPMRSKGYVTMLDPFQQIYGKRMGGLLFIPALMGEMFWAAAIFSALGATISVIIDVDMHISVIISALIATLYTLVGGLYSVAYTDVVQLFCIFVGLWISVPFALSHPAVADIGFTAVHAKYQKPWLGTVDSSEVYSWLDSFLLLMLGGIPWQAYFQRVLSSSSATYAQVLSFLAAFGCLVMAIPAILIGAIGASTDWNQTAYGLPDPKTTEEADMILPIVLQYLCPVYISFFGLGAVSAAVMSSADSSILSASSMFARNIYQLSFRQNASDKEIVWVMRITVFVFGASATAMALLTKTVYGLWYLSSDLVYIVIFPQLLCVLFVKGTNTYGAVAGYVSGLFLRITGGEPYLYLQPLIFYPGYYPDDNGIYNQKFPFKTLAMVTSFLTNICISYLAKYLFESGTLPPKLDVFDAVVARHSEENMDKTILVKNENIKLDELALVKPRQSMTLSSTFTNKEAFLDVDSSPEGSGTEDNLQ

HEK293 [11] = experiment: cells; settings: Homo sapiens
HEK293 [12] = experiment: cells; settings: Homo sapiens; remark: listed apart in the source
Cytochrome P450 2D6 [13] = biological target: T5, Cytochrome P450 2D6 (Homo sapiens, UniProt P10635);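 also: CYP2D6 member of a cytochrome P450 panel assay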
Cytochrome P450 1A2 = biological target: T6, Cytochrome P450 1A2 (Homo sapiens, UniProt P05177);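 also: PubChem cytochrome P450 panel assay, CYP1A2 panel member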
T6 sequence (P05177 whole entry): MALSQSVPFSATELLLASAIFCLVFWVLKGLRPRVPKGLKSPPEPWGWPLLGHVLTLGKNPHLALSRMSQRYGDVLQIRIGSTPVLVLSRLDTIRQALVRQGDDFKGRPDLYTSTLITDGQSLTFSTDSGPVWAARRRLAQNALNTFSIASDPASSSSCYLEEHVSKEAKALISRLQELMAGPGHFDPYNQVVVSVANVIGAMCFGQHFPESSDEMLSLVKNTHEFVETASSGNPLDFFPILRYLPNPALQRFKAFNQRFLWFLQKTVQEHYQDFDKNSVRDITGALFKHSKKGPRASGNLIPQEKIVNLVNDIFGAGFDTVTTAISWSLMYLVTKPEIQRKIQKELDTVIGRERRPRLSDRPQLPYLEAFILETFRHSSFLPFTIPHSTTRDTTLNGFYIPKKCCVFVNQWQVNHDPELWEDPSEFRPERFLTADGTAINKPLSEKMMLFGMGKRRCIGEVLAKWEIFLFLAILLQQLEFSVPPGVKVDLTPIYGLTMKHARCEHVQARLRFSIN

[14] = biological target: T3, Delta-type opioid receptor; experiment: Counterscreen for agonists of heterodimerization of the mu 1 (OPRM1) and delta 1 (OPRD1) opioid receptors: Luminescence-based cell-based high throughput dose response assay to identify agonists of OPRD1 homodimerization. [Related pubchem assays (depositor defined):AID504326, AID504355, AID504692, AID504904, AID504905]; format: functional
Mu-type opioid receptor [15] = biological target: T1, Mu-type opioid receptor; experiment: Counterscreen for agonists of heterodimerization of the mu 1 (OPRM1) and delta 1 (OPRD1) opioid receptors: Luminescence-based cell-based high throughput dose response assay to identify agonists of OPRM1 homodimerization.; format: functional
[16] = biological target: 5-hydroxytryptamine receptor 5A (Homo sapiens, UniProt P47898); experiment: Counterscreen for agonists of OPRM1-OPRD1 heterodimerization: luminescence-based cell-based high throughput dose response assay to identify agonists of 5-hydroxytryptamine (serotonin) 5A receptor (HTR5A). [Related pubchem assays (depositor defined):AID504326, AID504355, AID504692, AID504904, AID504905]; format: functional
Cytochrome P450 2D6 [17] = biological target: T5, Cytochrome P450 2D6; remark: listed apart in the source
[18] = biological target: Voltage-gated inwardly rectifying potassium channel KCNH2 (Homo sapiens, UniProt Q12809); settings: Potency;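 also: confirmatory quantitative high-throughput screen measuring inhibition of hERG channel activity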
[19] = biological target: Lysine-specific demethylase 4C (Homo sapiens, UniProt Q9H3R0); experiment: inhibition of JMJD2C H3K9me3 demethylation – biochemical, DELFIA europium, cherry-picked samples, dose response (AID 488835); format: functional
[20] = biological target: T7, Tyrosine-protein phosphatase non-receptor type 7 (Homo sapiens, UniProt P35236); format: functional
T7 sequence (P35236 whole entry): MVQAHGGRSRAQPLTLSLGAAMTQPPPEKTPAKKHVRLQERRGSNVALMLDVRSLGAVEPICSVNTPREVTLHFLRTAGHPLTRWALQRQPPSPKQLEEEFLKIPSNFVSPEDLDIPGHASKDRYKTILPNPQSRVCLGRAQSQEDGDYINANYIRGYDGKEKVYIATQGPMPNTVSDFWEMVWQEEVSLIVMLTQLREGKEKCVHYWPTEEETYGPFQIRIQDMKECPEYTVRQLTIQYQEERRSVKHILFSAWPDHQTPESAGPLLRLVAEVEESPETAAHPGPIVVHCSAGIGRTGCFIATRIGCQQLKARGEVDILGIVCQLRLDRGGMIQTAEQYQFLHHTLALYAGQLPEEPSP

[21] = biological target: Glyceraldehyde-3-phosphate dehydrogenase (Homo sapiens, UniProt P04406)
[22] = biological target: T8, Dual specificity protein phosphatase 6 (Rattus norvegicus, UniProt Q64346)
T8 sequence (Q64346 whole entry): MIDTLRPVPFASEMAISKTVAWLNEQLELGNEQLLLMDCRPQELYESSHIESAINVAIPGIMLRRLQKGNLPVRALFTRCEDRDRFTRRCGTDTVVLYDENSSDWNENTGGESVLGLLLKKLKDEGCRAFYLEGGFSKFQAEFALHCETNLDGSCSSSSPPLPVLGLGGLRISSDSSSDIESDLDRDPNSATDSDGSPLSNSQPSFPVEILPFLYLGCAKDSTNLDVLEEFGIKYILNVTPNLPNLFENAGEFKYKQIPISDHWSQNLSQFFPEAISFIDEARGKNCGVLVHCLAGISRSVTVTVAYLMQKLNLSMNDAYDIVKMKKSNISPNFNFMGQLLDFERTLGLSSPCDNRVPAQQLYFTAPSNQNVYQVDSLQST

[23] = biological target: T8, Dual specificity protein phosphatase 6; format: functional
Beta-galactosidase = Beta-galactosidase (Escherichia coli, UniProt Q8VNN2); experiment: PubChem AID 485352; format: functional
[24] = biological target: T9, Type-1 angiotensin II receptor (Homo sapiens, UniProt P30556); experiment: antagonism of angiotensin II type 1 receptor – cell-based, uHTS hits, selectivity assay for APJ receptor antagonist project, dose response (AID 463214); format: functional;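 also: antagonist potency against angiotensin II stimulated AT1 response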
T9 sequence (P30556 whole entry): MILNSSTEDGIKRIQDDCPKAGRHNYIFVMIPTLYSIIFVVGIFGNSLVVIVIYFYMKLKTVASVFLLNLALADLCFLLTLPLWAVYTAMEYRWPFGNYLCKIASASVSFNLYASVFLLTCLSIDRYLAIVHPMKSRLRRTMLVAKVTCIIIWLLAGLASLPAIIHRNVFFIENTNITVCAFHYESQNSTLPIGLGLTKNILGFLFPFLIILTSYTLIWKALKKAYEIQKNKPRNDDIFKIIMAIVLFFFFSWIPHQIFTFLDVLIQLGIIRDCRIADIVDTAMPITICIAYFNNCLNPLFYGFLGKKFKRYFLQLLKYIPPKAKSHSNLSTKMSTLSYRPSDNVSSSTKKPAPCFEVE

[25] = biological target: Intestinal-type alkaline phosphatase (Mus musculus, UniProt P24822); experiment: PubChem AID 488874; format: functional
[26] = biological target: T10, Intestinal-type alkaline phosphatase (Homo sapiens, UniProt P09923); experiment: inhibition of human intestinal alkaline phosphatase – biochemical, luminescent, uHTS hits, set 2, dose response (AID 488793); format: functional
[27] = biological target: T10, Intestinal-type alkaline phosphatase; experiment: Dose Response confirmation of uHTS hits from a small molecule inhibitors of human intestinal alkaline phosphatase via a luminescent assay. [Related pubchem assays (depositor defined):AID2544, AID2574]; format: functional
[28] = biological target: Alkaline phosphatase, tissue-nonspecific isozyme (Homo sapiens, UniProt P05186); experiment: inhibition of tissue-nonspecific alkaline phosphatase – biochemical, dose response (AID 488882); format: functional
[29] = biological target: UDP-galactopyranose mutase (Mycobacterium tuberculosis, UniProt P9WIQ1); experiment: Inhibitors of Mycobacterium tuberculosis UDP-galactopyranose mutase (UGM) enzyme Measured in Biochemical System Using Plate Reader - 2105-02_Inhibitor_Dose_CherryPick_Activity. [Related pubchem assays (depositor defined):AID504439]
NIH3T3 = experiment: mammalian cell viability counter-check – Alamar Blue, fluconazole, dry powder, cytotoxicity control for antifungal drug resistance project, dose response (AID 488809); format: functional, cell-based; settings: Mus musculus

T1 sequence (P35372 whole entry): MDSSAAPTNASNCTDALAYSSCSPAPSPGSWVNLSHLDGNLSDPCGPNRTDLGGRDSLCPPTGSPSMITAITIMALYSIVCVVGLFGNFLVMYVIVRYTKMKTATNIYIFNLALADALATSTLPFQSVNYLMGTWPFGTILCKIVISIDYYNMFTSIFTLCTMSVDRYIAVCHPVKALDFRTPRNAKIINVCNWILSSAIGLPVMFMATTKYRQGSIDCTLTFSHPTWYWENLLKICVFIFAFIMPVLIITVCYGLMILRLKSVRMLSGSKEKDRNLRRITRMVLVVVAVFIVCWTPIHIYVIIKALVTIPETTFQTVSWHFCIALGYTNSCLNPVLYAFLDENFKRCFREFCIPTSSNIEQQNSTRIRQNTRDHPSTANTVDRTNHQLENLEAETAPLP
T2 sequence (P41145 whole entry): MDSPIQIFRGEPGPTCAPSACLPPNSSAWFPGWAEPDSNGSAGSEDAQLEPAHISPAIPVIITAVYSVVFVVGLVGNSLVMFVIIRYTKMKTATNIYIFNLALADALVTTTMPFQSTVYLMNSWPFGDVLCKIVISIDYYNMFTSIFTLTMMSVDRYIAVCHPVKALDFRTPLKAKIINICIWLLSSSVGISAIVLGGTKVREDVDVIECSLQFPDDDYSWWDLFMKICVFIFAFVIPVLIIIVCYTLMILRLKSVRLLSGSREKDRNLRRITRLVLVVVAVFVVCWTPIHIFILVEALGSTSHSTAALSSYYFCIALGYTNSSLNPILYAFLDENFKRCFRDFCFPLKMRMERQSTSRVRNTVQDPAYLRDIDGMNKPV
T3 sequence (P41143 whole entry): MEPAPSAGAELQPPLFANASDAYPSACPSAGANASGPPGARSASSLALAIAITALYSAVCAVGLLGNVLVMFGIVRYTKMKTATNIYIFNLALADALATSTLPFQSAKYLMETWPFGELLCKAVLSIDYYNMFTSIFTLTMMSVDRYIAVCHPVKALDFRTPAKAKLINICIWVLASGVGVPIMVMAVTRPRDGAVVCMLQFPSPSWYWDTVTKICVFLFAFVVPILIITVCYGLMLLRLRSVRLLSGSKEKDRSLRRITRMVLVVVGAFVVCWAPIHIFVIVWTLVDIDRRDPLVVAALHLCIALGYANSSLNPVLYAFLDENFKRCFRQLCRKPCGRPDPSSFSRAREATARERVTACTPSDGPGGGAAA
T10 sequence (P09923 whole entry): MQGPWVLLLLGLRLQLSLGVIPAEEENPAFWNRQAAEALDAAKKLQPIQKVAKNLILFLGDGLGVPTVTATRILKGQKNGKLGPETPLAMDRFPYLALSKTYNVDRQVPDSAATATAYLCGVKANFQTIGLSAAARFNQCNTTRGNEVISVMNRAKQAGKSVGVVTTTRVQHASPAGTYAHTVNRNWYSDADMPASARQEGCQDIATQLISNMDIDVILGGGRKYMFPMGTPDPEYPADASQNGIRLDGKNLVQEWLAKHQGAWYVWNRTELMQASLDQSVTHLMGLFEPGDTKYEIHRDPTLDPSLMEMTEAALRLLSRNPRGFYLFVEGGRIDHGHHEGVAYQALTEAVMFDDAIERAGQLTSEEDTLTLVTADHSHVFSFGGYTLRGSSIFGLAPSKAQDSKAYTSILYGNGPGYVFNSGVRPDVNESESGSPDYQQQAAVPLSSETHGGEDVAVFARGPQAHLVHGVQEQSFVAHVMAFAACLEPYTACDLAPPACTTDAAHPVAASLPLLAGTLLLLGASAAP
T5 sequence (P10635 whole entry): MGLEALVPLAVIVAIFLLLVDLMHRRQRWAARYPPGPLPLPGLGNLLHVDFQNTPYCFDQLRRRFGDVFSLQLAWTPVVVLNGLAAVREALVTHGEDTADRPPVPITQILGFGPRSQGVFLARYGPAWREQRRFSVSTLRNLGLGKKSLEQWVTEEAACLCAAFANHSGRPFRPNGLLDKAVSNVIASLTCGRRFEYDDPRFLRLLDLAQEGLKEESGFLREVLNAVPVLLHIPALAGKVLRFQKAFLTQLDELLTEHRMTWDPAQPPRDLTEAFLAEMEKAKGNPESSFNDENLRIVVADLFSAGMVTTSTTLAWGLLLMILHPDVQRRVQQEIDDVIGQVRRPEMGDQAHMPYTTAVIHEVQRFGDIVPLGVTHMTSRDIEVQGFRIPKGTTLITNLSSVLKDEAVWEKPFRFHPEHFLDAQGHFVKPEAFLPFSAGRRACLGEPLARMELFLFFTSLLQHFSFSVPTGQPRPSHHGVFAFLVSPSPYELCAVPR
Glyceraldehyde-3-phosphate dehydrogenase, sequence (P04406 whole entry): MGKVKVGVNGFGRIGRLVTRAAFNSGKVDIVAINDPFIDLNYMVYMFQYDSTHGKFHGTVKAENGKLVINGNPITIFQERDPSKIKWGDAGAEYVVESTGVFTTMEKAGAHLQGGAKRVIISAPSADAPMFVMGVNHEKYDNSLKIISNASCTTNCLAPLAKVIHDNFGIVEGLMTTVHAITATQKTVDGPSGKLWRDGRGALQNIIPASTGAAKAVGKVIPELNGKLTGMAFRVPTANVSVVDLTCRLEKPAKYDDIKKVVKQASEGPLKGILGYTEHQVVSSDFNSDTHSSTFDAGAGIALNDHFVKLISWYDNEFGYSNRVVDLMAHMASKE
Voltage-gated inwardly rectifying potassium channel KCNH2, sequence (Q12809 whole entry): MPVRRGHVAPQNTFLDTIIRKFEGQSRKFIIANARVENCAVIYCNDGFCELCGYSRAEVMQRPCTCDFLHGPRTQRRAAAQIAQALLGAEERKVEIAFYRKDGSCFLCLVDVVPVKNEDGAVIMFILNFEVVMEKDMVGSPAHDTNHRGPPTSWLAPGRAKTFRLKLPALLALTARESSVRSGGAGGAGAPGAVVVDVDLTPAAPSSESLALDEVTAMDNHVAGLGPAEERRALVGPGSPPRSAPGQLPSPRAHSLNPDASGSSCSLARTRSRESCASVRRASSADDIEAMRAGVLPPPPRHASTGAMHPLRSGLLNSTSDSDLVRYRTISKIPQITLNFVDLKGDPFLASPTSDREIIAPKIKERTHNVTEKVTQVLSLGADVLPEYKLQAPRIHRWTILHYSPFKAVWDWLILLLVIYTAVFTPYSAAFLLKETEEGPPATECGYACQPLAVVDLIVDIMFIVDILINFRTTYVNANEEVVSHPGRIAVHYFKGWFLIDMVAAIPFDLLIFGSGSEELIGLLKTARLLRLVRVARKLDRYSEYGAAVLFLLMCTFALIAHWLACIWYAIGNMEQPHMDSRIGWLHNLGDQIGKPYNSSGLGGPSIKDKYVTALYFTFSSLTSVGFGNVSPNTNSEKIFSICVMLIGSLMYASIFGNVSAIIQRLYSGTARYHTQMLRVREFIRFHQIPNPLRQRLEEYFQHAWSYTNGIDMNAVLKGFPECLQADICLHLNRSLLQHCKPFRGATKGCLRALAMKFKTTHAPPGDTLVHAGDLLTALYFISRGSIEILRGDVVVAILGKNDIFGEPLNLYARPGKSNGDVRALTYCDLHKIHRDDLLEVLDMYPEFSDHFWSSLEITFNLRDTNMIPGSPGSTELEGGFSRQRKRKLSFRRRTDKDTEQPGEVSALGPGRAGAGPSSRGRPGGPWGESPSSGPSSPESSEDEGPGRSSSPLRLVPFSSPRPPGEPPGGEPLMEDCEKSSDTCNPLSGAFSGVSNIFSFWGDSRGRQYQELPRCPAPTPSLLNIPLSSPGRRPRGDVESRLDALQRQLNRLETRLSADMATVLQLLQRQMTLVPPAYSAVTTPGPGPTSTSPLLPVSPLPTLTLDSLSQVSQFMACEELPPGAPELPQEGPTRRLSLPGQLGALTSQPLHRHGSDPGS
Beta-galactosidase, sequence (Q8VNN2 whole entry): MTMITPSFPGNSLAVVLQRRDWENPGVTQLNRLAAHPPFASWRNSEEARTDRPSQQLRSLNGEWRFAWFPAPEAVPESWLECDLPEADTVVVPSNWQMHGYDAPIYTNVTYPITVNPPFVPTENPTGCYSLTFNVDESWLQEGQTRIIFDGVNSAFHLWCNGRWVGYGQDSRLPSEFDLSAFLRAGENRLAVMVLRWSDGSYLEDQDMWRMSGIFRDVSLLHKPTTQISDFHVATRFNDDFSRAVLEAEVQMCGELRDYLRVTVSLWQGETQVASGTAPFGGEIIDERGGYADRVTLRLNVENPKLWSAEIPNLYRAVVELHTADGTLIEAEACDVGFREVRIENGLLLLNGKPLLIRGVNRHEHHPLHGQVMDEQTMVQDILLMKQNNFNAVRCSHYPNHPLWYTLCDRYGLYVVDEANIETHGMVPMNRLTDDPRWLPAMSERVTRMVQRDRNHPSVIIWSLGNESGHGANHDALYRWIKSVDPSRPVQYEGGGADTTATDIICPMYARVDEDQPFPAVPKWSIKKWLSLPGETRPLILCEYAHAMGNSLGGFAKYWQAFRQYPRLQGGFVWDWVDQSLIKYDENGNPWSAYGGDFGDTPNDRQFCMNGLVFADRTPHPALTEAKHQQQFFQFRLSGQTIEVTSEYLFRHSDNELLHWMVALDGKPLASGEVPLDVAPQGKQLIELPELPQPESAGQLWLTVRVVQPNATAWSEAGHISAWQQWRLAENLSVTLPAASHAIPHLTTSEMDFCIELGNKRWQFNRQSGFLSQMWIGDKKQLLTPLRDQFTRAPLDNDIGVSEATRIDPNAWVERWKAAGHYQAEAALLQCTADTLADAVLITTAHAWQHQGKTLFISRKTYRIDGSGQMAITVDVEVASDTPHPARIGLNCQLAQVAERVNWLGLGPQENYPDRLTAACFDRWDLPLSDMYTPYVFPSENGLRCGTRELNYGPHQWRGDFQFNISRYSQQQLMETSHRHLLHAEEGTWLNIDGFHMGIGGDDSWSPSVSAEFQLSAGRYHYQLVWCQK

Cc1ccc(S(=O)(=O)NCc2ccc(C(=O)NCCCN(Cc3ccccc3)C(C)C)cc2)cc1
IC50 (Mu-type opioid receptor [1]): > 32 µM (inactive)
IC50 [2]: > 32 µM (inactive)
EC50 (Mu-type opioid receptor [3]): > 32 µM (inactive)
EC50 [4]: > 20 µM (inactive)
EC50 [5]: > 32 µM (inactive)
IC50 [6]: > 32 µM (inactive)
IC50 [7]: > 20 µM (inactive)
EC50 [8]: > 32 µM (inactive)

COc1ccc(C2=Nn3c(nnc3C3CCCCC3)SC2)cc1OC
IC50 [9]: 3.41 µM (active)
IC50 [10]: 1.74 µM (active)
EC50 (HEK293 [11]): > 59.6 µM (inactive)
EC50 (HEK293 [12]): > 59.6 µM (inactive)

CS(=O)(=O)O.Cc1ccc(N(CC2=NCCN2)c2cccc(O)c2)cc1 [PHENTOLAMINE MESYLATE]
AC50 (Cytochrome P450 2D6 [13]): 3.16 µM (active)
AC50 (Cytochrome P450 1A2): inactive

Cc1ccc(C)c(-n2cc(CNC(C)Cn3cncn3)c(-c3ccccc3)n2)c1 (configuration not stated)
EC50 [14]: > 92.5 µM (inactive)
EC50 (Mu-type opioid receptor [15]): > 92.5 µM (inactive)
EC50 [16]: > 92.5 µM (inactive)

O=C(O)C1(C(=O)O)CCN(S(=O)(=O)c2ccccc2)CC1
AC50 (Cytochrome P450 2D6 [17]): inconclusive

Brc1ccc(-c2ccccc2)cc1
AC50 [18]: 39.8 µM (inconclusive)

CC(=O)Nc1ccc(CN2CCN(c3cccc(C(F)(F)F)c3)CC2)cc1
AC50 [19]: 24.8 µM (active)

C#CCCCCCCCCCCCCCCCCCC
IC50 [20]: > 100 µM (not active)
IC50 [21]: > 100 µM (not active)
IC50 [22]: > 100 µM (inactive)
IC50 [23]: > 100 µM (inactive)

CN(C)c1ccc2nc3c(=O)[nH]c(=O)nc-3n(CC(O)C(O)C(O)CO)c2c1 (configuration not stated)
EC50 (Beta-galactosidase): > 40 µM (inactive)
IC50 [24]: 29.1 µM (not active)
IC50 [25]: 30.8 µM (active)
IC50 [26]: 34 µM (active)
IC50 [27]: 14.7 µM (inactive)
IC50 [28]: 33 µM (active)
AC50 [29]: > 500 µM (inactive)

CCOC(=O)c1nn(Cc2ccc(Cl)cc2)c2ccccc12
AC50 (NIH3T3): 39 µM (active)
